Measured values reported in PMC11995724, “Antibiotic target discovery by integrated phenotypic and activity-based profiling of electrophilic fragments” (Cell chemical biology, 2025).

Test: in vitro
Settings: human, hek293t cells

SMILES	viability at 48 h, 25 µM [%]
C=CC(=O)NC1CCCCC12CCCC2 (stereo not shown) [1-F16, N-{spiro[4.5]decan-6-yl}prop-2-enamide]	77.6
C=CC(=O)NCCS(=O)(=O)c1cccs1 [3-J17, N-[2-(thiophene-2-sulfonyl)ethyl]prop-2-enamide]	93.4
C=CC(=O)NCc1nnc(C2CCOCC2)[nH]1 [2-M22, N-{[5-(oxan-4-yl)-4H-1,2,4-triazol-3-yl]methyl}prop-2-enamide]	93.3
O=C(CCl)NC1CC(=O)N(c2cccc(C(F)(F)F)c2)C1 (stereo not shown) [5-E09, 2-chloro-N-{5-oxo-1-[3-(trifluoromethyl)phenyl]pyrrolidin-3-yl}acetamide]	0.777
N#CC(=Cc1cn(-c2ccccc2)nc1-c1ccc(Cl)cc1)C(N)=O [8-H16, 3-[3-(4-chlorophenyl)-1-phenyl-1H-pyrazol-4-yl]-2-cyanoprop-2-enamide]	125
O=C(CCl)N1CCCSc2ccccc21 [4-E16, 2-chloro-1-(2,3,4,5-tetrahydro-1,5-benzothiazepin-5-yl)ethan-1-one]	0.703
C=CC(=O)N1CCC(C(=O)N2CCCC(c3cnn(C)c3)C2)CC1 (stereo not shown) [2-N16, 1-{4-[3-(1-methyl-1H-pyrazol-4-yl)piperidine-1-carbonyl]piperidin-1-yl}prop-2-en-1-one]	99.6
CC(=O)c1ccc(NC(=O)CCl)cc1 [4-G07, N-(4-acetylphenyl)-2-chloroacetamide]	0.0514
O=C(CCl)NCc1cnn(-c2ccccc2)n1 [6-J03, 2-chloro-N-[(2-phenyl-2H-1,2,3-triazol-4-yl)methyl]acetamide]	1.68
Cn1cc(C(=O)CCl)nn1 [10-M19, 2-chloro-1-(1-methyl-1H-1,2,3-triazol-4-yl)ethan-1-one]	68.1
CC1CN(Cc2ccccc2)CC(C)N(C(=O)C(C)Cl)C1 (stereo not shown) [5-B21, 1-(4-benzyl-2,6-dimethyl-1,4-diazepan-1-yl)-2-chloropropan-1-one]	122
C=CC(=O)N(Cc1cc(C)c2ncccc2c1)C(C)C1CCCO1 (stereo not shown) [1-P15, N-[(8-methylquinolin-6-yl)methyl]-N-[1-(oxolan-2-yl)ethyl]prop-2-enamide]	93.5
Cc1cc(C(=O)CCl)c(C)n1-c1ccc(Cl)cc1 [10-H18, 2-chloro-1-[1-(4-chlorophenyl)-2,5-dimethyl-1H-pyrrol-3-yl]ethan-1-one]	0.517
C=CC(=O)N1CCC(C(=O)NCc2ccc(S(N)(=O)=O)cc2)CC1 [3-N10, 1-(prop-2-enoyl)-N-[(4-sulfamoylphenyl)methyl]piperidine-4-carboxamide]	85.1
C=CC(=O)NCCNC(=O)c1cc2ccccc2[nH]1 [3-B21, N-{2-[(1H-indol-2-yl)formamido]ethyl}prop-2-enamide]	63.1
C=CC(=O)N(C)CC(=O)N1CCC(c2nc3c(s2)CCCC3)CC1 [2-N04, N-methyl-N-{2-oxo-2-[4-(4,5,6,7-tetrahydro-1,3-benzothiazol-2-yl)piperidin-1-yl]ethyl}prop-2-enamide]	92.5
O=C(CCl)Nc1ccc(S(=O)(=O)c2ccc(F)cc2)cc1 [6-O14, 2-chloro-N-[4-(4-fluorobenzenesulfonyl)phenyl]acetamide]	0.578
N#CC(=Cc1ccc(Cl)cc1)C(=O)Nc1ccc2c(c1)OCCO2 [9-E22, 3-(4-chlorophenyl)-2-cyano-N-(2,3-dihydro-1,4-benzodioxin-6-yl)prop-2-enamide]	106
COc1cccc(NC(=O)C(C#N)=Cc2cccc(O)c2)c1 [8-P03, 2-cyano-3-(3-hydroxyphenyl)-N-(3-methoxyphenyl)prop-2-enamide]	120
C=CC(=O)NCC1CC(CC(=O)O)CO1 (stereo not shown) [2-E03, 2-{5-[(prop-2-enamido)methyl]oxolan-3-yl}acetic acid]	182
C=CC(=O)N[C@@H](CN(C)C)c1ccccc1 [2-M19, N-[(1R)-2-(dimethylamino)-1-phenylethyl]prop-2-enamide]	87.1
CCN(C(=O)C(C)Cl)C1CCCCC1 (stereo not shown) [5-I19, 2-chloro-N-cyclohexyl-N-ethylpropanamide]	134
CC(Cl)C(=O)Nc1ncnc2[nH]cnc12 (stereo not shown) [6-I18, 2-chloro-N-(9H-purin-6-yl)propanamide]	100
C=CC(=O)Nc1cnn(C2CCCC2)c1 [3-O21, N-(1-cyclopentyl-1H-pyrazol-4-yl)prop-2-enamide]	70.5
CC(C)C(NC(=O)CCl)c1ccc(F)c(C#N)c1 (stereo not shown) [6-I19, 2-chloro-N-[1-(3-cyano-4-fluorophenyl)-2-methylpropyl]acetamide]	1.83
N#CC(=Cc1ccc2c(c1)OCCO2)C(=O)Nc1nccs1 [8-B03, 2-cyano-3-(2,3-dihydro-1,4-benzodioxin-6-yl)-N-(1,3-thiazol-2-yl)prop-2-enamide]	115
C=CC(=O)N1CCCC(n2ccnn2)C1 (stereo not shown) [1-D09, 1-[3-(1H-1,2,3-triazol-1-yl)piperidin-1-yl]prop-2-en-1-one]	93.6
O=C(CCl)N1CC(S(=O)(=O)Nc2ccccc2)C1 [5-G10, 1-(2-chloroacetyl)-N-phenylazetidine-3-sulfonamide]	1.28

SMILES	viability at 48 h, 25 µM [%]
C=CC(=O)N1CCCC2(CCCCO2)C1 (stereo not shown) [3-O09, 1-{1-oxa-8-azaspiro[5.5]undecan-8-yl}prop-2-en-1-one]	57
CC(C)N(Cc1ccc(N(C)C)cc1)C(=O)CCl [5-E06, 2-chloro-N-{[4-(dimethylamino)phenyl]methyl}-N-(propan-2-yl)acetamide]	1.94
CC(Cl)C(=O)NCC(=O)Nc1ccc2c[nH]nc2c1 (stereo not shown) [7-N11, 2-chloro-N-{[(2H-indazol-6-yl)carbamoyl]methyl}propanamide]	97
C=CC(=O)NCc1ccnn1C [1-H20, N-[(1-methyl-1H-pyrazol-5-yl)methyl]prop-2-enamide]	58
C=CC(=O)NC1COCC1C (stereo not shown) [1-D06, N-(4-methyloxolan-3-yl)prop-2-enamide]	77.2
CC(NC(=O)C(C#N)=Cc1ccco1)c1cccc(-n2ccnc2)c1 (stereo not shown) [9-H04, 2-cyano-3-(furan-2-yl)-N-{1-[3-(1H-imidazol-1-yl)phenyl]ethyl}prop-2-enamide]	127
COc1ccc(CN(C)C(=O)CCl)cc1 [6-M15, 2-chloro-N-[(4-methoxyphenyl)methyl]-N-methylacetamide]	0.805
CC(Cl)C(=O)NC(c1ccccc1)c1ccccc1 (stereo not shown) [5-A21, 2-chloro-N-(diphenylmethyl)propanamide]	85.8
COc1ccc(O)c(C=C(C#N)C(=O)Nc2cccc3ccccc23)c1 [8-N14, 2-cyano-3-(2-hydroxy-5-methoxyphenyl)-N-(naphthalen-1-yl)prop-2-enamide]	117
C=CC(=O)NCc1noc2c1CCCC2 [3-B20, N-[(4,5,6,7-tetrahydro-1,2-benzoxazol-3-yl)methyl]prop-2-enamide]	74.4
CC(Cl)C(=O)N1CCc2oc(-c3ccccc3)cc2C1 (stereo not shown) [6-B21, 2-chloro-1-{2-phenyl-4H,5H,6H,7H-furo[3,2-c]pyridin-5-yl}propan-1-one]	67.2
CC(Cl)C(=O)NCc1nc(-c2cccc(C#N)c2)c[nH]1 (stereo not shown) [6-F09, 2-chloro-N-{[4-(3-cyanophenyl)-1H-imidazol-2-yl]methyl}propanamide]	113
COc1cc([N+](=O)[O-])ccc1NC(=O)CCl [4-O07, 2-chloro-N-(2-methoxy-4-nitrophenyl)acetamide]	1.19
C=CC(=O)N1CCCC(C2CCN(C(=O)c3cc(C)nn3C)CC2)C1 (stereo not shown) [1-P22, 1-[1'-(1,3-dimethyl-1H-pyrazole-5-carbonyl)-[3,4'-bipiperidin]-1-yl]prop-2-en-1-one]	55.9
Cc1cccc(C=C(C#N)C(=O)Nc2ccc(C(=O)O)cc2)c1 [8-M21, 4-[2-cyano-3-(3-methylphenyl)prop-2-enamido]benzoic acid]	91.6
C=CC(=O)Nc1cccc(N2CCOCC2)c1 [1-K04, N-[3-(morpholin-4-yl)phenyl]prop-2-enamide]	74.1
N#CC(=Cc1ccc(O)c(O)c1)C(=O)Nc1ccccc1F [8-B05, 2-cyano-3-(3,4-dihydroxyphenyl)-N-(2-fluorophenyl)prop-2-enamide]	92.9
CS(=O)(=O)N1CCc2cc(C(=O)CCl)ccc21 [10-B19, 2-chloro-1-(1-methanesulfonyl-2,3-dihydro-1H-indol-5-yl)ethan-1-one]	7.21
COC(=O)c1cc(C(=O)CCl)c(C)o1 [10-G13, methyl 4-(2-chloroacetyl)-5-methylfuran-2-carboxylate]	76.4
N#CC(=Cc1cccc(F)c1)C(=O)Nc1cc(Cl)ccc1Cl [9-P03, 2-cyano-N-(2,5-dichlorophenyl)-3-(3-fluorophenyl)prop-2-enamide]	109
C=CC(=O)N1CCC(C(=O)NC(C)(C)c2ccc(F)c(F)c2)CC1 [1-L04, N-[2-(3,4-difluorophenyl)propan-2-yl]-1-(prop-2-enoyl)piperidine-4-carboxamide]	91.1
COc1ccccc1CN(C)C(=O)CCl [6-C09, 2-chloro-N-[(2-methoxyphenyl)methyl]-N-methylacetamide]	1.06
CC(=O)Nc1ccc(C=C(C#N)C(=O)Nc2cccc(C)c2C)cc1 [9-D19, 2-cyano-N-(2,3-dimethylphenyl)-3-(4-acetamidophenyl)prop-2-enamide]	107
C=CC(=O)N1CCCC1 [1-G08, 1-(pyrrolidin-1-yl)prop-2-en-1-one]	70.2
C=CC(=O)Nc1cc(C(C)(C)C)nn1-c1ncccn1 [1-E04, N-[3-tert-butyl-1-(pyrimidin-2-yl)-1H-pyrazol-5-yl]prop-2-enamide]	88.8
C=CC(=O)N(C)Cc1cncn1C [2-D09, N-methyl-N-[(1-methyl-1H-imidazol-5-yl)methyl]prop-2-enamide]	61.2
CC(C)c1noc2ncc(C(=O)N3CCSSCC3)cc12 [10-F21, 5-[3-(propan-2-yl)-[1,2]oxazolo[5,4-b]pyridine-5-carbonyl]-1,2,5-dithiazepane]	86.3
